The target of this assay is T1, NS3 Proteinase (Hepatitis C virus genotype 1b, UniProt P26663).
T1 construct: beschriebenen NS3 Proteinase-Assay bestimmt
The assay can be described thus: NS3 proteinase assay (analogous to Taliani et al., Analytical Biochemistry 240 (1996) 60-67; evaluation with GraFit 4). The format is biochemical. The source says: Die IC50-Werte wurden analog zu dem in: M. Taliani et al., Analytical Biochemistry, 240 (1996) 60-67 beschriebenen NS3 Proteinase-Assay bestimmt. Die Auswertung erfolgte mit Hilfe des Programms "GraFit 4" der Firma Erithacus Software Ltd. (Staines, Middlesex, UK).

SMILES strings stand for the structures. Read-outs that look alike come from different tables or passages of the source.

T1 sequence (P26663 1027-1657, other chains not shown): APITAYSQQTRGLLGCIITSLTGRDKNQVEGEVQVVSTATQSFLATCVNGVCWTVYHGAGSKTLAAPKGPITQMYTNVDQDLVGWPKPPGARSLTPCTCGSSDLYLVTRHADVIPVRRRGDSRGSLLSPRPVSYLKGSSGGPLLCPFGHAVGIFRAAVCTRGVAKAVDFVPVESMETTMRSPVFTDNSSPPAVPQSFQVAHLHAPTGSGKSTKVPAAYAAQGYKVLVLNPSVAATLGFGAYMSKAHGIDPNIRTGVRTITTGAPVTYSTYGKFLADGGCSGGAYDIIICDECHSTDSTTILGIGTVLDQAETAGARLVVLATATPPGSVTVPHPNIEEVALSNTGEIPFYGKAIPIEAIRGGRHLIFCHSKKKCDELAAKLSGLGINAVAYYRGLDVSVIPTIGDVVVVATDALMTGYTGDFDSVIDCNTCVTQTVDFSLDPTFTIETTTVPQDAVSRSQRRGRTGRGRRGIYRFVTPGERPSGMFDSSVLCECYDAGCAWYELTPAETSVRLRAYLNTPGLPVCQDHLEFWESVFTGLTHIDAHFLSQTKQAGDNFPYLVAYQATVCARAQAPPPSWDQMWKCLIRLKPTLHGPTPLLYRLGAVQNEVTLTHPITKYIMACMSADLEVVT

Turning to `CC1=CC(=O)c2ccccc2C1=O` [Beispiel 1, Menadion], for the setting “read-out: IC50”, the 50% inhibitory concentration (IC50) was determined as 45 µM.

For the compound `O=C1C=CC(=O)c2ccccc21` [Beispiel 2, 1,4-Naphthochinon], the concentration for half-maximal inhibition (IC50) turned out to be 20 µM.

In the case of `Nc1ccc(O)c2ccccc12` [Beispiel 3, 1-Amino-4-naphthol], for the setting “read-out: IC50”, the IC50 was determined as 13 µM.

Take `Oc1ccc(NCc2ccccc2)c2ccccc12` [Beispiel 4, 1-Benzylamino-4-naphthol]: the IC50 (read-out: IC50) came to 25 µM.

As to `Nc1ccc(O)c2ncccc12` [Beispiel 5, 5-Amino-8-hydroxychinolin], the IC50 (read-out: IC50) is 51 µM.

Source of the values: EP1248603B1, “USE OF PARTICULAR COMPOUNDS FOR PROPHYLAXIS AND TREATMENT OF HEPATITIS C” (Morphochem AG, priority 2000, dated 2001).
